Data on two molecules can be found in PMC11950244, “Discovery of novel dual-target inhibitors of LSD1/EGFR for non-small cell lung cancer therapy” (Acta Pharmacologica Sinica, 2025).

One data set deals with EGFR-mutant NSCLC cells. Further details: method as in Hu et al. [61]. The settings on record: ref Hu et al. [61]; cited from earlier work.
The subject of another data set is EGFR wild-type cells. Also noted: method as in Hu et al. [61]. The note with it: ref Hu et al. [61]; cited from earlier work.
The test system of data set [1] is PC9 cells (with EGFR mutant). As to the kind of experiment: Cell proliferation assay (cell number counting), PC9. Type of data set: cell-based. The procedure:
(§1) Lung cancer H460, H1299, PC9, and H1975 cells were purchased from Procell (Wuhan, China) and cultured in RPMI-1640 medium (Thermo Fisher Scientific, MA, USA) supplemented with 10% fetal bovine serum (FBS, ExCell Bio, Shanghai, China). For cell proliferation assay, the cells were seeded in a 24-well plate (0.5 × 10^4 cells/well), then treated with L-1 with increasing concentrations (0, 2.5, 5, 10, 20, 40 μM) or vehicle alone. Cell numbers were counted using try-pan blue exclusion on the fourth day.

In data set [2] the target is T1, LSD1 (Homo sapiens, UniProt O60341). Put plainly: LSD1 enzymatic assay.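 As to Bottom: percent inhibition of LSD1 activity from the fitted dose-response curve.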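 As to Top: percent inhibition of LSD1 activity from the fitted dose-response curve.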 Type of data set: biochemical. The procedure:
A total of 12 compounds were purchased from J&K Scientific Ltd. (Shanghai, China). The biological experiments of inhibiting the enzymatic activity of LSD1 by 12 test compounds were conducted by Pharmaron (Beijing, China). Each compound was serially diluted 4-fold in 100% dimethyl sulfoxide (DMSO) from a starting DMSO stock concentration of 20 mM to obtain 10 concentration doses. Seclidemstat was used as a positive control. The diluted compounds were added to the LSD1 assay buffer (50 mM Tris-HCl, pH 7.5, and 1% DMSO) and incubated with LSD1 for 30 min at room temperature. The peptide substrate was then added to initiate the reaction, and the mixture was further incubated for 60 min at room temperature. The reaction was stopped by adding the stop solution, followed by the addition of the detection solution containing protein-A-Eu, streptavidin-d2, and anti-Histone H3 (dimethyl K9) antibody. […] The IC50 was calculated using a nonlinear regression (dose response – variable slope) by fitting the inhibition ratio and log of compound concentrations using Graphpad 8.0.

The test system of data set [3] is H1975 cells-derived xenograft (CDX). Put plainly: H1975 cell-derived xenograft (CDX) mouse model, tumor formation. It is filed as in vivo, nude mice. The settings on record: 75 and 150 mg/kg i.p. every two days, compared to control group. The procedure:
(§2) Nude mice (nu/nu, female, 4–6-week-old) were purchased from Charles River (Beijing, China) and subcutaneously injected with 2 × 10^6 H1975 cells harboring on the right flank. Tumor growth was recorded by measurement of two perpendicular diameters using the equation: π/6 × length × width^2. To explore the effect of L-1 on tumorigenicity in lung cancer, when tumor volumes reached approximately 50 mm^3, mice received either vehicle control, L-1 (75 mg/kg) and L-1 (150 mg/kg), and they were administered every two days by i.p. injection. The mice were sacrificed, and the tumors were excised, imaged and weighed after inhibitor treatments. Statistical analyses have been done by comparison in relation to the control group with a two-tailed unpaired Student’s t test. The animal experiments were performed according to the institutional ethical guidelines approved by the Laboratory Animal Ethics Committee Nankai University.

Data set [4] concerns LSD1/EGFR relevant downstream signaling pathways. Put plainly: Western blot of signaling pathway proteins in the H1975 CDX model. Type of data set: in vivo, nude mice. The procedure:
Cells were lysed with lysis buffer (1.5 M NaCl, 1 M Hepes, 20% NP40, 0.1 M Na pyrophosphate, 0.1 M NaF, 0.1 M Na3VO4, 0.2 M glycerol phosphate) on ice for 30 min and then centrifuged at 12,000 r/min for 15 min at 4 °C. Protein samples were loaded into 12% SDS-PAGE, then separated by running for different voltage, and transferred onto PVDF membranes (Millipore, MA, USA). The membranes were blocked with 5% non-fat milk for 2 h and then incubated overnight at 4 °C or at room temperature for 2 h with the primary antibody and 1 h at room temperature with secondary antibody. Signals were detected using Luminol substrate solution (Millipore, MA, USA).
A general note: A western blot detects proteins with antibodies after separation by electrophoresis.

The subject of data set [5] is BaF3 cells stably expressing EGFR (L858R/T790M/C797S). Put plainly: BaF3 cell assay (CTG luminescence). The settings on record: Mus musculus, BaF3, read-out: BaF3 cell assay IC50 (μM) L858R/T790M/C797S.
Experimental: The following steps were followed for cell culture and compound treatment:
% Inhibition is calculated as follow: %Inhibition=1−LUMcmpd−LUMave−pc/LUMave−vc−LUMave−pc×100
LUMcmpd = LUM for compound being tested
LUMave_pc = Average LUM for positive controls (10 μM Control Compound)
LUMave_vc = Average LUM for vehicle controls (0.1% DMSO)
For another data set, the system named is Ki67. Put plainly: Ki67 immunohistochemical staining of CDX tumors. It is filed as in vivo, nude mice. The settings on record: CDX tumor, L-1 treatment group. The procedure: Immunohistochemistry was performed on paraffin-embedded sections. Tissue sections were dewaxed and rehydrated using standard protocol. Antigen retrieval was performed by boiling samples in citrate buffer for 45 min. Endogenous peroxidase activity was inhibited by using 3% hydrogen peroxidase. Sections were blocked in 3% BSA in PBS and incubated in primary antibody (Ki67, CST, MA, USA) overnight at 4 °C. Then the secondary antibody (Goat anti-rabbit IgG (H + L) HRP, Bioworld, OH, USA) was incubated at room temperature for 1.5 h and developed using DAB. Sections were counterstained with hematoxylin.

Data set [6] deals with H1975 cells (with EGFR mutant). As to the kind of experiment: Cell proliferation assay (cell number counting), H1975. It is filed as cell-based. The procedure: as §1
The nature of data set [7]: Body weight of H1975 xenograft nude mice. It is filed as in vivo. The note with it: 75 and 150 mg/kg i.p. every two days. The procedure:
as §2

Data set [8] has as its target T1, LSD1. Put plainly: SPR binding assay (Biacore T200). The procedure:
Surface plasmon resonance (SPR) was employed to evaluate direct binding between compounds and LSD1 using Biacore T200 optical biosensor (Biacore Life Sciences, GE Healthcare). LSD1 was covalently attached to CM5 sensor chip via amine coupling. Binding experiments were conducted at 15 °C in a buffer containing 10 mM HEPES (pH 7.4), 150 mM NaCl, 1% DMSO, and 0.05% Tween, with a flow rate of 30 μL/min. Compounds were serially diluted in the same buffer and injected over the prepared surfaces for 15–25 s at increasing concentrations. Sensorgrams were corrected by subtracting signals from both an untreated reference channel and blank injections. Data analysis was performed using Biacore T200 evaluation software (GE Healthcare).
In general terms: In SPR one partner is held on a chip, and binding of the other changes the refractive index at the surface.

Data set [9] concerns H460 cells (with EGFR wild type). As to the kind of experiment: Cell proliferation assay (cell number counting), H460. It is filed as cell-based. The settings on record: 0-40 μM, counted on the fourth day. The procedure: as §1
The test system of data set [10] is H1299 cells (with EGFR wild type). Put plainly: Cell proliferation assay (cell number counting), H1299. Type of data set: cell-based. The note with it: 0-40 μM, counted on the fourth day. The procedure:
as §1

Data set [11] concerns the target triple-mutant EGFR (L858R/T790M/C797S) (Homo sapiens, UniProt P00533, C797S/L858R/T790M). As to the kind of experiment: EGFR kinase assay (HTRF), triple mutant. It is filed as biochemical. The procedure:
The biological experiments of inhibiting the activity of EGFR by test compounds were also performed by Pharmaron (Beijing). To conduct the kinase assay, the following steps were followed:
% Inhibition is calculated as follow: %Inhibition=1−SINGALcmpd−SINGALave−pc/SINGALave−vc−SINGALave−pc×100
SINGALcmpd = singal for compound being tested
SINGALave_pc = singal for positive controls
SINGALave_vc = singal for vehicle controls

The mark [12] stands for this setting: 0-40 μM, counted on the fourth day.
[13] abbreviates: LSD1 knockdown compared to control cells.
Setting [14] is: concentration-response curve fit parameter.

pIC50, pKd: −log10 of the molar value.

triple-mutant EGFR (L858R/T790M/C797S), sequence (P00533 25-1210 T790M/C797S/L858R): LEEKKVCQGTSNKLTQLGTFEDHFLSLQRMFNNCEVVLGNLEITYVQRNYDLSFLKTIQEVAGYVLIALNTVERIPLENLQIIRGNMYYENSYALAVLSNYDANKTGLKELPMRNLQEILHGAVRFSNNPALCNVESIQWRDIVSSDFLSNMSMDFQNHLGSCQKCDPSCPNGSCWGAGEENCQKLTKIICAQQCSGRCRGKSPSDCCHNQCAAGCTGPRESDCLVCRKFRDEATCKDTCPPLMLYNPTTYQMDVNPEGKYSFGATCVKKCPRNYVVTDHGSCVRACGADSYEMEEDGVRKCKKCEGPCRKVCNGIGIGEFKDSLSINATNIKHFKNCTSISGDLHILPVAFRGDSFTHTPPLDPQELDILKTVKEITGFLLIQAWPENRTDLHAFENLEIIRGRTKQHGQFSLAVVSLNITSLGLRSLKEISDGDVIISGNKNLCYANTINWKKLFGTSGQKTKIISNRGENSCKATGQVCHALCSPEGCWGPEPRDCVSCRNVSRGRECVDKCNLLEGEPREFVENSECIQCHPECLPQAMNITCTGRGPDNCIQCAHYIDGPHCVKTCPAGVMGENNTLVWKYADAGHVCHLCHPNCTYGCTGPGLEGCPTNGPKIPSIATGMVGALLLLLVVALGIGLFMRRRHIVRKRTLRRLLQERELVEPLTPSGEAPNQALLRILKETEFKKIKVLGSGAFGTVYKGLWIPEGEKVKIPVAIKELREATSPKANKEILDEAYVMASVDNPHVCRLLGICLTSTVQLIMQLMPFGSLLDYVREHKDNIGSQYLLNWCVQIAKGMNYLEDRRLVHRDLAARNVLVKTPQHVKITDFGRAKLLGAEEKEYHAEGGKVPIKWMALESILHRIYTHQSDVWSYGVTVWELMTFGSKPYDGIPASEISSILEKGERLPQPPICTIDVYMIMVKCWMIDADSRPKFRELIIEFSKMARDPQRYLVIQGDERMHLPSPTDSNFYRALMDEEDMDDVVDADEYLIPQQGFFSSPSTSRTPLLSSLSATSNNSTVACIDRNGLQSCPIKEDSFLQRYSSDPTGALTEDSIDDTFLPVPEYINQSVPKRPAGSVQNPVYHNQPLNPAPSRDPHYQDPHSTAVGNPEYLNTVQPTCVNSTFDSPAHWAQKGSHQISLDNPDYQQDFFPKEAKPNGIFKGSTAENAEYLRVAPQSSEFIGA

On to `C=CC(=O)Nc1cc(Nc2nccc(-c3cn(C)c4ccccc34)n2)c(OC)cc1N(C)CCN(C)C` [Osimertinib], for which, in the data set on EGFR-mutant NSCLC cells, the “effect on EGFR-mutant cells” value was “significant inhibitory effect”. For the same molecule, the “effect on EGFR wild-type cells” value in the data set with EGFR wild-type cells was “less pronounced impact”.
What is called pIC50 is the IC50 on a negative log10 scale, so that one unit is a factor of ten. Read a high pIC50 as a small IC50. In general, pKd refers to −log10 of the Kd, conventionally taken in molar units. Low readings indicate a high Kd, high ones a low Kd. Regarding `CCN(CC)c1ccc(/C=C2/C(=O)NC(=O)N(c3ccc(Cl)cc3)C2=O)c(O)c1` [L-1], the “cell proliferation, PC9” value in data set [1] (setting [12]) is “significantly inhibited”. Further, in data set [1] (setting [13]), the “efficacy after LSD1 knockdown, PC9” value is given as “less effective”. At LSD1 [2], this molecule showed a pIC50 of 5.20 and a Relative potency % of 3.7%. For the same molecule, on LSD1 [2] (setting [14]), the Bottom is listed as −4.65, the Hillslope was 1.26 and the Top came to 51.52. For the same molecule, in data set [3], the tumor growth rate entry is “slower growth rate”, the tumor size result is recorded as “smaller tumor size” and the tumor weight entry is “lighter tumor weight”. Besides, the “LSD1/EGFR relevant downstream signaling pathways (Western blot)” value in data set [4] is reported as “could inhibit”. Also, in [5], the IC50 was 5.58 µM. In addition, in the data set on Ki67, the “level of Ki67 (IHC)” value is “significantly suppressed”. For the same molecule, in data set [6] (setting [12]), the “cell proliferation, H1975” value is on record as “significantly inhibited”. Besides, the “efficacy after LSD1 knockdown, H1975” value in [6] (setting [13]) is listed as “less effective”. Also, the “body weight of nude mice” value in data set [7] was “did not affect”. In addition, at LSD1 [8], the “Binding to LSD1 by SPR (in words)” value is “specific and reversible binding”; the pKd was 4.74. Also, the “cell proliferation, H460” value in data set [9] is given as “not have effect”. The “cell proliferation, H1299” value in data set [10] is given as “not have effect”. In [11], this molecule gave a pIC50 of 5.30.
